In US10738028B2, “Spiro three-membered ring, spiro five-membered ring peptide deformylase inhibitor and use thereof in antibacteria and anti-tumor” (priority 2016, dated 2020):
≈ marks a conversion by molar mass, not a printed value.

How the values were obtained:
Type in all cases: cell-based
[1] = system: Enterococcus faecalis (EFA); test: MIC, two-fold agar dilution (CLSI), clinical isolates
Excerpt: (§1) 1. The invention adopts the two-fold agar dilution method recommended by the operating procedure of antimicrobial susceptibility testing set by American Clinical and Laboratory Standards Institute (CLSI) to determine the Minimum Inhibitory Concentration (MIC) of the test samples against the tested strains.

[2] = system: Enterococcus faecium (EFM); test: as above
Excerpt: as §1

[3] = system: Escherichia coli (including ESBLs, non-ESBLs); test: as above
Excerpt: as §1

[4] = system: Moraxella catarrhalis (BCA); test: as above
Excerpt: as §1

[5] = system: Streptococcus pneoumoniae (SPN); test: as above
Excerpt: as §1

[6] = system: methicillin-resistant Staphylococcus aureus (MRSA); test: as above
Excerpt: as §1

[7] = system: methicillin-resistant Staphylococcus epidermidis (MRSE); test: as above
Excerpt: as §1

[8] = system: methicillin-sensitive Staphylococcus aureus (MSSA); test: as above
Excerpt: as §1

[9] = system: methicillin-sensitive Staphylococcus epidermidis (MSSE); test: as above
Excerpt: as §1

[10] = system: HCT-116 colorectal cancer cell line; test: CCK-8 proliferation inhibition; conditions: Homo sapiens, HCT-116, 72 h, concentration of 30 μM; 72 hours; CCK-8; read-out: HCT116 inhibition rate/%
Method: (1) HCT-116 colorectal cancer cell line, A549 lung cancer cell line, MGC-803 gastric cancer cell line, BEL-7402 liver cancer cell line, Jurkat T cell leukemia cell line, HL60 acute myeloid leukemia cell line, Hela cervical cancer cell line, MCF-7 breast cancer cell line, PC3 prostate cancer cell line and SAOS-2 osteosarcoma cell line were made into single cell suspension, 180 μL of which was inoculated into 96-well culture plate, which was cultured overnight in CO2 incubator (37° C., 5% CO2, 95% air).
(2) Each of the spiro three-membered ring, spiro five membered ring peptide deformylase inhibitors was dissolved in DMSO, and was further formulated into drug solution with required different final concentration using corresponding cell culture medium. The drug solutions were added to the above cells respectively (20 μL/well), with the control group added with 1‰ DMSO, and cultured in a CO2 incubator for 72 hours.
(3) After incubation for 72 hours, the culture solution was decanted, and 100 μL of 1:10 diluted CCK-8 solution was added.
Wherein, in step (1), the concentration of the single cell suspension was 2000 cells/well.
Wherein, in step (2), HCT-116 cells were cultured in McCoy's 5A medium (containing 10% newborn bovine serum, 1% double antibody); A549 and PC3 cells were cultured in F12 medium (containing 10% newborn bovine serum, 1% double antibody); MGC-803, BEL-7402, SAOS-2, Jurkat and HL60 cells were cultured in 1640 medium (containing 10% newborn bovine serum, 1% double antibody); and MCF-7 and Hela cells were cultured in DMEM high glucose medium (containing 10% newborn bovine serum, 1% double antibody).

SMILES: CCCC[C@H](CN(O)C=O)C(=O)N1CC2(CC2)C[C@H]1C(=O)Nc1cnccn1 [Example 15]
- MIC (anti-bacterial activity) ([1]; strain EFA 15-1): 1 µg/mL (≈ 2.57 µM)
- MIC (anti-bacterial activity) ([1]; strain EFA 15-2): 1 µg/mL (≈ 2.57 µM)
- MIC (anti-bacterial activity) ([1]; strain EFA 15-3): 1 µg/mL (≈ 2.57 µM)
- MIC (anti-bacterial activity) ([1]; strain EFA 15-4): 1 µg/mL (≈ 2.57 µM)
- MIC (anti-bacterial activity) ([1]; strain EFA 15-5): 4 µg/mL (≈ 10.3 µM)
- MIC (anti-bacterial activity) ([1]; strain EFA 15-6): 4 µg/mL (≈ 10.3 µM)
- MIC (anti-bacterial activity) ([1]; strain EFA 15-9): 1 µg/mL (≈ 2.57 µM)
- MIC (anti-bacterial activity) ([2]; strain EFM 15-1): 1 µg/mL (≈ 2.57 µM)
- MIC (anti-bacterial activity) ([2]; strain EFM 15-2): 1 µg/mL (≈ 2.57 µM)
- MIC (anti-bacterial activity) ([2]; strain EFM 15-3): 0.125 µg/mL (≈ 0.321 µM)
- MIC (anti-bacterial activity) ([2]; strain EFM 15-4): 1 µg/mL (≈ 2.57 µM)
- MIC (anti-bacterial activity) ([2]; strain EFM 15-5): 0.125 µg/mL (≈ 0.321 µM)
- MIC (anti-bacterial activity) ([2]; strain EFM 15-6): 1 µg/mL (≈ 2.57 µM)
- MIC (anti-bacterial activity) ([3]; strain ECO+ 15-1): 32 µg/mL (≈ 82.2 µM)
- MIC (anti-bacterial activity) ([3]; strain ECO+ 15-2): 64 µg/mL (≈ 164 µM)
- MIC (anti-bacterial activity) ([3]; strain ECO+ 15-3): 32 µg/mL (≈ 82.2 µM)
- MIC (anti-bacterial activity) ([3]; strain ECO+ 15-4): 32 µg/mL (≈ 82.2 µM)
- MIC (anti-bacterial activity) ([3]; strain ECO− 15-1): 32 µg/mL (≈ 82.2 µM)
- MIC (anti-bacterial activity) ([3]; strain ECO− 15-2): 64 µg/mL (≈ 164 µM)
- MIC (anti-bacterial activity) ([3]; strain ECO− 15-3): 64 µg/mL (≈ 164 µM)
- MIC (anti-bacterial activity) ([3]; strain ECO− 15-4): 64 µg/mL (≈ 164 µM)
- MIC (anti-bacterial activity) ([4]; strain BCA 14-1): 0.5 µg/mL (≈ 1.28 µM)
- MIC (anti-bacterial activity) ([4]; strain BCA 14-4): 0.5 µg/mL (≈ 1.28 µM)
- MIC (anti-bacterial activity) ([4]; strain BCA 14-5): 0.125 µg/mL (≈ 0.321 µM)
- MIC (anti-bacterial activity) ([4]; strain BCA 14-6): 1 µg/mL (≈ 2.57 µM)
- MIC (anti-bacterial activity) ([4]; strain BCA 14-7): 0.125 µg/mL (≈ 0.321 µM)
- MIC (anti-bacterial activity) ([4]; strain BCA 14-8): 0.5 µg/mL (≈ 1.28 µM)
- MIC (anti-bacterial activity) ([4]; strain BCA 14-10): 0.125 µg/mL (≈ 0.321 µM)
- MIC (anti-bacterial activity) ([5]; strain SPN 16-2): 0.015 µg/mL (≈ 0.0385 µM)
- MIC (anti-bacterial activity) ([5]; strain SPN 16-4): 0.5 µg/mL (≈ 1.28 µM)
- MIC (anti-bacterial activity) ([6]; strain MRSA 15-1): 0.125 µg/mL (≈ 0.321 µM)
- MIC (anti-bacterial activity) ([6]; strain MRSA 15-2): 0.25 µg/mL (≈ 0.642 µM)
- MIC (anti-bacterial activity) ([6]; strain MRSA 15-3): 0.125 µg/mL (≈ 0.321 µM)
- MIC (anti-bacterial activity) ([6]; strain MRSA 15-4): 0.25 µg/mL (≈ 0.642 µM)
- MIC (anti-bacterial activity) ([7]; strain MRSE 15-1): 0.125 µg/mL (≈ 0.321 µM)
- MIC (anti-bacterial activity) ([7]; strain MRSE 15-2): 0.25 µg/mL (≈ 0.642 µM)
- MIC (anti-bacterial activity) ([7]; strain MRSE 15-3): 0.25 µg/mL (≈ 0.642 µM)
- MIC (anti-bacterial activity) ([7]; strain MRSE 15-7): 0.25 µg/mL (≈ 0.642 µM)
- MIC (anti-bacterial activity) ([8]; strain MSSA 15-3): 0.25 µg/mL (≈ 0.642 µM)
- MIC (anti-bacterial activity) ([8]; strain MSSA 15-4): 0.125 µg/mL (≈ 0.321 µM)
- MIC (anti-bacterial activity) ([8]; strain MSSA 15-5): 0.125 µg/mL (≈ 0.321 µM)
- MIC (anti-bacterial activity) ([8]; strain MSSA 15-6): 0.125 µg/mL (≈ 0.321 µM)
- MIC (anti-bacterial activity) ([9]; strain MSSE 15-3): 0.25 µg/mL (≈ 0.642 µM)
- MIC (anti-bacterial activity) ([9]; strain MSSE 15-4): 0.06 µg/mL (≈ 0.154 µM)
- MIC (anti-bacterial activity) ([9]; strain MSSE 15-5): 0.06 µg/mL (≈ 0.154 µM)
- MIC (anti-bacterial activity) ([9]; strain MSSE 15-6): 0.06 µg/mL (≈ 0.154 µM)
- inhibition at 30 µM [10]: 24%

SMILES: CCCC[C@H](CN(O)C=O)C(=O)N1CC2(CC2)C[C@H]1C(=O)Nc1ccncn1 [Example 16, (S)-5-((R)-2-((N-hydroxyformamido)methyl)hexanoyl)-N-(pyrimidin-4-yl)-5-spiro[2.4]heptane-6-carboxamide]
- MIC (anti-bacterial activity) ([1]; strain EFA 15-1): 4 µg/mL (≈ 10.3 µM)
- MIC (anti-bacterial activity) ([1]; strain EFA 15-2): 4 µg/mL (≈ 10.3 µM)
- MIC (anti-bacterial activity) ([1]; strain EFA 15-3): 0.25 µg/mL (≈ 0.642 µM)
- MIC (anti-bacterial activity) ([1]; strain EFA 15-4): 4 µg/mL (≈ 10.3 µM)
- MIC (anti-bacterial activity) ([1]; strain EFA 15-5): 4 µg/mL (≈ 10.3 µM)
- MIC (anti-bacterial activity) ([1]; strain EFA 15-6): 4 µg/mL (≈ 10.3 µM)
- MIC (anti-bacterial activity) ([1]; strain EFA 15-9): 4 µg/mL (≈ 10.3 µM)
- MIC (anti-bacterial activity) ([2]; strain EFM 15-1): 0.5 µg/mL (≈ 1.28 µM)
- MIC (anti-bacterial activity) ([2]; strain EFM 15-2): 1 µg/mL (≈ 2.57 µM)
- MIC (anti-bacterial activity) ([2]; strain EFM 15-3): 0.25 µg/mL (≈ 0.642 µM)
- MIC (anti-bacterial activity) ([2]; strain EFM 15-4): 2 µg/mL (≈ 5.14 µM)
- MIC (anti-bacterial activity) ([2]; strain EFM 15-5): 0.25 µg/mL (≈ 0.642 µM)
- MIC (anti-bacterial activity) ([2]; strain EFM 15-6): 2 µg/mL (≈ 5.14 µM)
- MIC (anti-bacterial activity) ([3]; strain ECO+ 15-1): 32 µg/mL (≈ 82.2 µM)
- MIC (anti-bacterial activity) ([3]; strain ECO+ 15-2): > 32 µg/mL
- MIC (anti-bacterial activity) ([3]; strain ECO+ 15-3): > 32 µg/mL
- MIC (anti-bacterial activity) ([3]; strain ECO+ 15-4): > 32 µg/mL
- MIC (anti-bacterial activity) ([3]; strain ECO− 15-1): 32 µg/mL (≈ 82.2 µM)
- MIC (anti-bacterial activity) ([3]; strain ECO− 15-2): > 32 µg/mL
- MIC (anti-bacterial activity) ([3]; strain ECO− 15-3): > 32 µg/mL
- MIC (anti-bacterial activity) ([3]; strain ECO− 15-4): > 32 µg/mL
- MIC (anti-bacterial activity) ([4]; strain BCA 14-1): 0.5 µg/mL (≈ 1.28 µM)
- MIC (anti-bacterial activity) ([4]; strain BCA 14-4): 1 µg/mL (≈ 2.57 µM)
- MIC (anti-bacterial activity) ([4]; strain BCA 14-5): 0.25 µg/mL (≈ 0.642 µM)
- MIC (anti-bacterial activity) ([4]; strain BCA 14-6): 1 µg/mL (≈ 2.57 µM)
- MIC (anti-bacterial activity) ([4]; strain BCA 14-7): 0.25 µg/mL (≈ 0.642 µM)
- MIC (anti-bacterial activity) ([4]; strain BCA 14-8): 0.25 µg/mL (≈ 0.642 µM)
- MIC (anti-bacterial activity) ([4]; strain BCA 14-10): 0.25 µg/mL (≈ 0.642 µM)
- MIC (anti-bacterial activity) ([5]; strain SPN 16-2): 4 µg/mL (≈ 10.3 µM)
- MIC (anti-bacterial activity) ([5]; strain SPN 16-4): 0.25 µg/mL (≈ 0.642 µM)
- MIC (anti-bacterial activity) ([6]; strain MRSA 15-1): 0.06 µg/mL (≈ 0.154 µM)
- MIC (anti-bacterial activity) ([6]; strain MRSA 15-2): 0.25 µg/mL (≈ 0.642 µM)
- MIC (anti-bacterial activity) ([6]; strain MRSA 15-3): 0.25 µg/mL (≈ 0.642 µM)
- MIC (anti-bacterial activity) ([6]; strain MRSA 15-4): 1 µg/mL (≈ 2.57 µM)
- MIC (anti-bacterial activity) ([7]; strain MRSE 15-1): 0.06 µg/mL (≈ 0.154 µM)
- MIC (anti-bacterial activity) ([7]; strain MRSE 15-2): 1 µg/mL (≈ 2.57 µM)
- MIC (anti-bacterial activity) ([7]; strain MRSE 15-3): 0.25 µg/mL (≈ 0.642 µM)
- MIC (anti-bacterial activity) ([7]; strain MRSE 15-7): 0.25 µg/mL (≈ 0.642 µM)
- MIC (anti-bacterial activity) ([8]; strain MSSA 15-3): 1 µg/mL (≈ 2.57 µM)
- MIC (anti-bacterial activity) ([8]; strain MSSA 15-4): 0.25 µg/mL (≈ 0.642 µM)
- MIC (anti-bacterial activity) ([8]; strain MSSA 15-5): 0.125 µg/mL (≈ 0.321 µM)
- MIC (anti-bacterial activity) ([8]; strain MSSA 15-6): 1 µg/mL (≈ 2.57 µM)
- MIC (anti-bacterial activity) ([9]; strain MSSE 15-3): 1 µg/mL (≈ 2.57 µM)
- MIC (anti-bacterial activity) ([9]; strain MSSE 15-4): 0.06 µg/mL (≈ 0.154 µM)
- MIC (anti-bacterial activity) ([9]; strain MSSE 15-5): 0.06 µg/mL (≈ 0.154 µM)
- MIC (anti-bacterial activity) ([9]; strain MSSE 15-6): 0.06 µg/mL (≈ 0.154 µM)
- inhibition at 30 µM [10]: 24%
